Test results from PubChem BioAssay (NCI).
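Where inhibition never reached the appropriate level, the endpoint shown equals the highest concentration tested. Otherwise, values were interpolated linearly from a five-concentration, 48-hour dose response in 96-well plates. Definition used: TGI = concentration required for complete inhibition of growth.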

What was measured:
Experiment in all cases: NCI-60 cell line screen, 48 h
[1] = tested on: MOLT-4 leukemia
[2] = tested on: UO-31 renal
[3] = tested on: HOP-92 NSCLC
[4] = tested on: ACHN renal
[5] = tested on: HT29 colon
[6] = tested on: MALME-3M melanoma
[7] = tested on: BT-549 breast
[8] = tested on: HCT-116 colon
[9] = tested on: NCI-H460 lung
[10] = tested on: NCI-H226 lung
[11] = tested on: MDA-MB-435
[12] = tested on: NCI-H522 lung
[13] = tested on: CAKI-1 renal
[14] = tested on: K-562 leukemia
[15] = tested on: TK-10 renal
[16] = tested on: SF-268 CNS
[17] = tested on: KM12 colon
[18] = tested on: UACC-62 melanoma
[19] = tested on: SNB-75 CNS
[20] = tested on: RPMI-8226 leukemia
[21] = tested on: DU-145 prostate
[22] = tested on: SW-620 colon
[23] = tested on: OVCAR-3 ovarian
[24] = tested on: T-47D breast
[25] = tested on: MDA-N
[26] = tested on: HCC-2998 colon
[27] = tested on: IGROV1 ovarian
[28] = tested on: SK-MEL-2 melanoma
[29] = tested on: SNB-19 CNS
[30] = tested on: EKVX NSCLC
[31] = tested on: OVCAR-8 ovarian
[32] = tested on: CCRF-CEM leukemia
[33] = tested on: U251 CNS
[34] = tested on: HS 578T breast
[35] = tested on: LOX IMVI melanoma
[36] = tested on: MDA-MB-231 breast
[37] = tested on: NCI/ADR-RES ovarian
[38] = tested on: HOP-62 NSCLC
[39] = tested on: SK-MEL-28 melanoma
[40] = tested on: UACC-257 melanoma
[41] = tested on: HCT-15 colon
[42] = tested on: COLO 205 colon
[43] = tested on: SK-MEL-5 melanoma
[44] = tested on: A498 renal
[45] = tested on: OVCAR-4 ovarian
[46] = tested on: PC-3 prostate
[47] = tested on: 786-0 renal
[48] = tested on: NCI-H23 lung
[49] = tested on: SN12C renal
[50] = tested on: OVCAR-5 ovarian
[51] = tested on: HL-60(TB) leukemia
[52] = tested on: SF-295 CNS
[53] = tested on: SR leukemia
[54] = tested on: RXF 393 renal
[55] = tested on: A549 NSCLC
[56] = tested on: M14 melanoma
[57] = tested on: SK-OV-3 ovarian
[58] = tested on: SF-539 CNS

## O=c1oc2ccccc2c(O)c1C1c2c(c3ccccc3oc2=O)Oc2c1c(=O)oc1ccccc21
[1]
  TGI: > 100 µM
[2]
  TGI: 35.6 µM
[3]
  TGI: > 100 µM
[4]
  TGI: 62.9 µM
[5]
  TGI: 98 µM
[6]
  TGI: > 100 µM
[7]
  TGI: 67.5 µM
[8]
  TGI: > 100 µM
[9]
  TGI: 31.7 µM
[10]
  TGI: 64 µM
[11]
  TGI: 60 µM
[12]
  TGI: > 100 µM
[13]
  TGI: 69.3 µM
[14]
  TGI: > 100 µM
[15]
  TGI: > 100 µM
[16]
  TGI: 94 µM
[17]
  TGI: 57.9 µM
[18]
  TGI: 47.5 µM
[19]
  TGI: > 100 µM
[20]
  TGI: 87.9 µM
[21]
  TGI: > 100 µM
[22]
  TGI: > 100 µM
[23]
  TGI: > 100 µM
[24]
  TGI: > 100 µM
[25]
  TGI: 37.3 µM
[26]
  TGI: 41.1 µM
[27]
  TGI: > 100 µM
[28]
  TGI: > 100 µM
[29]
  TGI: > 100 µM
[30]
  TGI: > 100 µM
[31]
  TGI: > 100 µM
[32]
  TGI: > 100 µM
[33]
  TGI: > 100 µM
[34]
  TGI: > 100 µM
[35]
  TGI: > 100 µM
[36]
  TGI: 71.2 µM
[37]
  TGI: > 100 µM
[38]
  TGI: > 100 µM
[39]
  TGI: 97.8 µM
[40]
  TGI: > 100 µM
[41]
  TGI: > 100 µM
[42]
  TGI: > 100 µM
[43]
  TGI: 52.1 µM
[44]
  TGI: > 100 µM
[45]
  TGI: > 100 µM
[46]
  TGI: > 100 µM
[47]
  TGI: > 100 µM
[48]
  TGI: 89.2 µM
[49]
  TGI: 73.3 µM

## CSC1=NC(C(N)=O)C(N)N1C (stereo not given)
[1]
  TGI: > 100 µM
[2]
  TGI: > 100 µM
[50]
  TGI: > 100 µM
[3]
  TGI: > 100 µM
[4]
  TGI: > 100 µM
[5]
  TGI: > 100 µM
[51]
  TGI: > 100 µM
[6]
  TGI: > 100 µM
[7]
  TGI: > 100 µM
[8]
  TGI: > 100 µM
[52]
  TGI: > 100 µM
[9]
  TGI: > 100 µM
[10]
  TGI: > 100 µM
[11]
  TGI: > 100 µM
[12]
  TGI: > 100 µM
[13]
  TGI: > 100 µM
[14]
  TGI: > 100 µM
[15]
  TGI: > 100 µM
[16]
  TGI: > 100 µM
[17]
  TGI: > 100 µM
[18]
  TGI: > 100 µM
[53]
  TGI: > 100 µM
[20]
  TGI: > 100 µM
[21]
  TGI: > 100 µM
[54]
  TGI: > 100 µM
[22]
  TGI: > 100 µM
[23]
  TGI: > 100 µM
[55]
  TGI: > 100 µM
[24]
  TGI: > 100 µM
[25]
  TGI: > 100 µM
[27]
  TGI: > 100 µM
[28]
  TGI: > 100 µM
[29]
  TGI: > 100 µM
[30]
  TGI: > 100 µM
[31]
  TGI: > 100 µM
[32]
  TGI: > 100 µM
[33]
  TGI: > 100 µM
[34]
  TGI: > 100 µM
[35]
  TGI: > 100 µM
[36]
  TGI: > 100 µM
[37]
  TGI: > 100 µM
[38]
  TGI: > 100 µM
[39]
  TGI: > 100 µM
[40]
  TGI: > 100 µM
[56]
  TGI: > 100 µM
[57]
  TGI: > 100 µM
[41]
  TGI: > 100 µM
[58]
  TGI: > 100 µM
[42]
  TGI: > 100 µM
[43]
  TGI: > 100 µM
[44]
  TGI: > 100 µM
[45]
  TGI: > 100 µM
[46]
  TGI: > 100 µM
[47]
  TGI: > 100 µM
[48]
  TGI: > 100 µM
[49]
  TGI: > 100 µM
